Legend:
DOHH-2 [1] = test: Induction of cell cycle arrest in human DOHH-2 cells assessed as accumulation of cells at S phase at 0.25 uM incubated for 24 hrs by PI staining based flow cytometry analysis (reference value: 40.7%); type: functional
[2] = Downregulation of BAX methylation level in human DOHH-2 cells at 100 nM measured after 6 days by PCR analysis relative to control; type: functional; settings: time 6 day
TMD8 [3] = test: Antiproliferative activity against human TMD8 cells assessed as inhibition of cell viability measured after 72 hrs by MTT assay; type: functional, cell-based; settings: TMD8, 72 h
DOHH-2 [4] = test: Induction of cell cycle arrest in human DOHH-2 cells assessed as accumulation of cells at G2-M phase at 0.5 uM incubated for 24 hrs by PI staining based flow cytometry analysis (reference value: 27.8%); type: functional
[5] = Volume of distribution at steady state in Sprague-Dawley rat at 10 mg/kg, iv measured upto 24 hrs by LC/MS/MS analysis; type: ADME, organism-based; settings: in vivo, read-out: Vdss
TMD8 [6] = test: Induction of cell cycle arrest in human TMD8 cells assessed as accumulation of cells at G2/M phase at 0.5 uM incubated for 24 hrs by PI staining based flow cytometry analysis (reference value: 20.4%); type: functional
TMD8 [7] = test: Induction of cell cycle arrest in human TMD8 cells assessed as accumulation of cells at S phase at 1.0 uM incubated for 24 hrs by PI staining based flow cytometry analysis (reference value: 39.0%); type: functional
[8] = Oral bioavailability in Sprague-Dawley rat at 10 mg/kg measured upto 24 hrs by LC/MS/MS analysis; type: ADME, organism-based; settings: Sprague-Dawley, in vivo
DOHH-2 [9] = test: Induction of cell cycle arrest in human DOHH-2 cells assessed as accumulation of cells at G0-G1 phase at 0.5 uM incubated for 24 hrs by PI staining based flow cytometry analysis (reference value: 27.1%); type: functional
TMD8 [10] = test: Antitumor activity against human TMD8 cells xenografted in mouse model assessed as tumor inhibition rate at 10 mg/kg, iv administered three times a week relative to control; type: functional; parameters: scale not given: the % may be the effect or the level left
[11] = target: DNA (cytosine-5)-methyltransferase 1 (Homo sapiens, UniProt P26358); test: Inhibition of DNMT1 (unknown origin) at 5 uM preincubated for 15 mins followed by substrate and [3H-SAM] addition and measured after 60 mins by microbeta analysis relative to control; settings: time 75.0 min
DOHH-2 [12] = test: Induction of cell cycle arrest in human DOHH-2 cells assessed as accumulation of cells at G0-G1 phase incubated for 24 hrs by PI staining based flow cytometry analysis; type: functional; settings: dose 0.25-1 µM
TMD8 [13] = test: Induction of apoptosis in human TMD8 cells assessed as early apoptotic cells at 5 uM measured after 48 hrs by annexin-V/FITC and PI staining based flow cytometry analysis (reference value: 9.15%); type: functional
[14] = target: T1, DNA (cytosine-5)-methyltransferase 3A (Homo sapiens, UniProt Q9Y6K1); test: Inhibition of DNMT3A (unknown origin) at 5 uM preincubated for 15 mins followed by substrate and [3H-SAM] addition and measured after 60 mins by microbeta analysis relative to control; settings: time 75.0 min
[15] = target: DNA (cytosine-5)-methyltransferase 3B (Homo sapiens, UniProt Q9UBC3); test: Inhibition of DNMT3B (unknown origin) at 5 uM preincubated for 15 mins followed by substrate and [3H-SAM] addition and measured after 60 mins by microbeta analysis relative to control; settings: time 75.0 min
DOHH-2 [16] = test: Induction of cell cycle arrest in human DOHH-2 cells assessed as accumulation of cells at G0-G1 phase at 0.25 uM incubated for 24 hrs by PI staining based flow cytometry analysis (reference value: 27.1%); type: functional
MDA-MB-231 = test: Antiproliferative activity against human MDA-MB-231 cells assessed as inhibition of cell viability measured after 72 hrs by MTT assay; type: functional, cell-based; settings: MDA-MB-231, 72 h
TMD8 [17] = test: Induction of cell cycle arrest in human TMD8 cells assessed as accumulation of cells at G0-G1 phase at 1.0 uM incubated for 24 hrs by PI staining based flow cytometry analysis (reference value: 40.7%); type: functional
[18] = Subacute toxicity in Balb/C mouse assessed as effect on heart at 30 mg/kg, iv administered three times in a week for 2 weeks; type: organism-based; settings: in vivo, 336 h
[19] = Subacute toxicity in Balb/C mouse assessed as effect on kidney at 30 mg/kg, iv administered three times in a week for 2 weeks; type: organism-based; settings: in vivo, 336 h
[20] = target: T1, DNA (cytosine-5)-methyltransferase 3A; test: Inhibition of DNMT3A (unknown origin) preincubated for 15 mins followed by substrate and [3H-SAM] addition and measured after 60 mins by microbeta analysis
MOLM-13 = test: Antiproliferative activity against human MOLM-13 cells assessed as inhibition of cell viability measured after 72 hrs by MTT assay; type: functional, cell-based; settings: MOLM-13, 72 h
TMD8 [21] = test: Induction of cell cycle arrest in human TMD8 cells assessed as accumulation of cells at S phase at 0.5 uM incubated for 24 hrs by PI staining based flow cytometry analysis (reference value: 39.0%); type: functional
[22] = Subacute toxicity in Balb/C mouse assessed as effect on hematocrit at 30 mg/kg, iv administered three times in a week for 2 weeks; type: organism-based; settings: in vivo, 336 h
TMD8 [23] = test: Induction of cell cycle arrest in human TMD8 cells assessed as accumulation of cells at G0-G1 phase at 0.5 uM incubated for 24 hrs by PI staining based flow cytometry analysis (reference value: 40.7%); type: functional
[24] = Antitumor activity against human TMD8 cells harbouring TP53 mutant xenografted in mouse model assessed as body weight change at 10 mg/kg, iv administered three times a week in presence of chidamide relative to control; type: functional
TMD8 [25] = test: Induction of cell cycle arrest in human TMD8 cells assessed as accumulation of cells at G2/M phase at 0.25 uM incubated for 24 hrs by PI staining based flow cytometry analysis (reference value: 20.4%); type: functional
[26] = Antitumor activity against human TMD8 cells harbouring […] xenografted in mouse model assessed as tumor inhibition rate at 10 mg/kg, iv administered three times a week relative to control; type: functional; parameters: scale not given: the % may be the effect or the level left
HT-29 = test: Antiproliferative activity against human HT-29 cells assessed as inhibition of cell viability measured after 72 hrs by MTT assay; type: functional, cell-based; settings: HT-29, 72 h
[27] = Antitumor activity against human TMD8 cells harbouring […] xenografted in mouse model assessed as body weight change at 10 mg/kg, iv administered three times a week relative to control; type: functional
[28] = Antitumor activity against human TMD8 cells harbouring TP53 mutant xenografted in mouse model assessed as tumor inhibition rate at 10 mg/kg, iv administered three times a week in presence of chidamide relative to control; type: functional; parameters: scale not given: the % may be the effect or the level left
DOHH-2 [29] = test: Induction of cell cycle arrest in human DOHH-2 cells assessed as accumulation of cells at S phase at 1.0 uM incubated for 24 hrs by PI staining based flow cytometry analysis (reference value: 40.7%); type: functional
U-937 = test: Antiproliferative activity against human U-937 cells assessed as inhibition of cell viability measured after 72 hrs by MTT assay; type: functional, cell-based; settings: U-937, 72 h
[30] = Terminal elimination half life in Sprague-Dawley rat at 10 mg/kg, po measured upto 24 hrs by LC/MS/MS analysis; type: ADME, organism-based; settings: in vivo, read-out: beta t1/2 (converted)

T1 sequence (Q9Y6K1 whole entry, looked up): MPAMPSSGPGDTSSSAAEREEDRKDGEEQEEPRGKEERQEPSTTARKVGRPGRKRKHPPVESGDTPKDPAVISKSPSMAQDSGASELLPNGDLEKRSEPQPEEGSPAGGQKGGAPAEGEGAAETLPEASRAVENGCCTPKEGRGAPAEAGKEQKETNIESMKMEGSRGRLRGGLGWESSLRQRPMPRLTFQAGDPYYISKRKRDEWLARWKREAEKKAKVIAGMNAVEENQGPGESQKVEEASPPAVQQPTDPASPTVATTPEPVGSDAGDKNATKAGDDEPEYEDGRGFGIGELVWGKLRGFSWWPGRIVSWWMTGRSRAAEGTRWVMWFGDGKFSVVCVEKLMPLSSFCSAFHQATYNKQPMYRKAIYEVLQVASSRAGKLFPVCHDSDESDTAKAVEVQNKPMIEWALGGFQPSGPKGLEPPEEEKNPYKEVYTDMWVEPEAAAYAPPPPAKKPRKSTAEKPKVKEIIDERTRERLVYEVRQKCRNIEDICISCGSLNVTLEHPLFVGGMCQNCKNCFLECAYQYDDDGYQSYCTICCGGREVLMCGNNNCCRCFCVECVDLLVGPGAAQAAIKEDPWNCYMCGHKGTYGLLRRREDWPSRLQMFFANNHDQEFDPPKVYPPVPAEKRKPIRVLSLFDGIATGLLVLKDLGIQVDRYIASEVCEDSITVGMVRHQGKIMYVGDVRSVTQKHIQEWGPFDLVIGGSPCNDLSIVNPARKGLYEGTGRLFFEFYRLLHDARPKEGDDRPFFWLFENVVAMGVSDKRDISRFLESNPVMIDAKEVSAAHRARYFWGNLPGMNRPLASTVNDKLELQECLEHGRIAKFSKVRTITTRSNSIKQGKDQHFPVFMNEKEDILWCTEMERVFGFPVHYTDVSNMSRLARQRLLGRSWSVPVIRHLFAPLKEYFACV
Chain of DNA (cytosine-5)-methyltransferase 1 (P26358 whole entry): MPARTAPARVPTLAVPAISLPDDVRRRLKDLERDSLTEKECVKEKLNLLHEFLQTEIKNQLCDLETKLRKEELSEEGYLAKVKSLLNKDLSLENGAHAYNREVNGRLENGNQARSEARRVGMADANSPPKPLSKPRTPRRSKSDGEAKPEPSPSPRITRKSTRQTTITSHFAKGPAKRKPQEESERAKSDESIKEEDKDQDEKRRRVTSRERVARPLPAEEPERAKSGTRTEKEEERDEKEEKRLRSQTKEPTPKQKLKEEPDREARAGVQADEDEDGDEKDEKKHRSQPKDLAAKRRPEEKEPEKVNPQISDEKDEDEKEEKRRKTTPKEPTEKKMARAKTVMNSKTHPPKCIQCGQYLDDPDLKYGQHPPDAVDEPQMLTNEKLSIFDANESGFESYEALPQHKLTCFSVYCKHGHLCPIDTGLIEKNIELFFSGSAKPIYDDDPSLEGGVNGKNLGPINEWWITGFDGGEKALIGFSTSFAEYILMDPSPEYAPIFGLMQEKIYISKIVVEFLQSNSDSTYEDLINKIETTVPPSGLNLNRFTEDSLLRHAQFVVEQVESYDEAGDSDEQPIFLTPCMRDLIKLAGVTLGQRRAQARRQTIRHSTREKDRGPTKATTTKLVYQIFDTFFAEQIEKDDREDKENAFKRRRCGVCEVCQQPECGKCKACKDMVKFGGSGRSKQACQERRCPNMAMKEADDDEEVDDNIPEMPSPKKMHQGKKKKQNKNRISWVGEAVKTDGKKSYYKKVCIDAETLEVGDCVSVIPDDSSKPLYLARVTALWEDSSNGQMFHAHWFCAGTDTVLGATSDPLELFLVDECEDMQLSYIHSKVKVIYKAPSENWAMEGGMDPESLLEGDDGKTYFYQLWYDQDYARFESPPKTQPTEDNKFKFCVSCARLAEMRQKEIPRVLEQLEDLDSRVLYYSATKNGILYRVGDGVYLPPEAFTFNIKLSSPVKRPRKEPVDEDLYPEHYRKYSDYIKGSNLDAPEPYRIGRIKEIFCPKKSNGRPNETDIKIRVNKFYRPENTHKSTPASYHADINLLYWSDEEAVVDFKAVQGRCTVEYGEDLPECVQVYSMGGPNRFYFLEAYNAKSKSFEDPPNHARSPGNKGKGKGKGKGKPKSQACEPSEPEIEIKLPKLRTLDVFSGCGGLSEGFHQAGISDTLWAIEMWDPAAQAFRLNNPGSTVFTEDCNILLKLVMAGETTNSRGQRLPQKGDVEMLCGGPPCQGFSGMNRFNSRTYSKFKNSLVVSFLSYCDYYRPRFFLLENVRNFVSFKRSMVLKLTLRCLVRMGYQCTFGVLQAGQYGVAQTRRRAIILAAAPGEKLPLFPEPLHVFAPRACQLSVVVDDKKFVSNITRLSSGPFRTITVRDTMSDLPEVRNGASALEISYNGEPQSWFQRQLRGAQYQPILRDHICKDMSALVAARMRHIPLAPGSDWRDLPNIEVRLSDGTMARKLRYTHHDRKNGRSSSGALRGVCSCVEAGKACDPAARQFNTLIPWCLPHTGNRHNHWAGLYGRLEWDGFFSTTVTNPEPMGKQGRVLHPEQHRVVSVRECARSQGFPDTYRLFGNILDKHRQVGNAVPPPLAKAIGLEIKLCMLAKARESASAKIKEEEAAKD

Vd [5]: 102 L/kg
bioavailability [8]: 23.4%
inhibition [11]: 75%
inhibition [14]: 11%
inhibition [15]: 1.1%
IC50 (MDA-MB-231): 3910 nM
IC50 [20]: 14400 nM
IC50 (MOLM-13): 1060 nM
IC50 (HT-29): 1060 nM
IC50 (U-937): 2210 nM
half-life [30]: 21.9 h
Compound: CN1CCC(Nc2nc(-c3ccnc(F)c3)nc3c2ccn3CCCN2CCCC2)CC1
Activity (DOHH-2 [1]): 37.3%
Activity [2]: 55.2%
IC50 (TMD8 [3]): 500 nM
Activity (DOHH-2 [4]): 29.1%
Activity (TMD8 [6]): 28.8%
Activity (TMD8 [7]): 29.3%
Activity (DOHH-2 [9]): 39.7%
Activity (TMD8 [10]): 54.61%
Activity (DOHH-2 [12]): Dose-dependent-effect
Activity (TMD8 [13]): 41.3%
Activity (DOHH-2 [16]): 28.6%
Activity (TMD8 [17]): 32.5%
Activity [18]: Non-toxic
Activity [19]: Non-toxic
Activity (TMD8 [21]): 32.3%
Activity [22]: Non-toxic
Activity (TMD8 [23]): 39%
Activity [24]: -1.5%
Activity (TMD8 [25]): 24.4%
Activity [26]: 65.7%
Activity [27]: 6.8%
Activity [28]: 83.2%
Activity (DOHH-2 [29]): 19.9%
